Test results as given in patent US20100189786A1, “CRYSTALLINE TOLTERODINE TARTARATE AND A PHARMACEUTICAL COMPOSITION CONTAINING THE SAME” (priority 2006, published 2010).

Assay: Measurement of particle size by the microscopic method
Assay type: physicochemical
Details: no treatment; for weight of the material that would pass through the 250 μm sieve: share by weight; for particles smaller than 30 μm: share of all particles
Method: The drawings represent results of measurement of the particle size of the product prepared according to Example 2 by a microscopic method.
For all the batches, measurement of particle size was performed without any treatment using the microscopic method.

SMILES	maximum crystal size [μm]	maximum crystal size (listed as batch I) [μm]	weight of the material that would pass through the 250 μm sieve [%]	weight of the material that would pass through the 250 μm sieve (listed as batch I) [%]	particles smaller than 30 μm [%]	particles smaller than 30 μm (listed as batch I) [%]	maximum crystal size (listed as batch II) [μm]	weight of the material that would pass through the 250 μm sieve (listed as batch II) [%]	particles smaller than 30 μm (listed as batch II) [%]	maximum crystal size (listed as batch III) [μm]	weight of the material that would pass through the 250 μm sieve (listed as batch III) [%]	particles smaller than 30 μm (listed as batch III) [%]
Cc1ccc(O)c([C@H](CCN(C(C)C)C(C)C)c2ccccc2)c1.O=C(O)C(O)C(O)C(=O)O [Batch I, R-tolterodine tartarate]	623	623	40.9	40.9	91.95	91.95						
Cc1ccc(O)c([C@H](CCN(C(C)C)C(C)C)c2ccccc2)c1.O=C(O)C(O)C(O)C(=O)O [Batch II, R-tolterodine tartarate]	439		47.2		94.73		439	47.2	94.73			
Cc1ccc(O)c([C@H](CCN(C(C)C)C(C)C)c2ccccc2)c1.O=C(O)C(O)C(O)C(=O)O [Batch III, R-tolterodine tartarate]	702		41.3		89.29					702	41.3	89.29
